Measurements from patent publication US8889682B2, “Inhibitors of bruton'S tyrosine kinase” (Hoffmann-La Roche Inc., priority 2011, dated 2014).

Tested on: B cell receptor-mediated activation of B cells in human blood (CD69 expression)
Assay: Inhibition of B cell activation in whole blood measured by CD69 expression
Format: cell-based
Settings: anti-IgM stimulation, 20 hours, CD69-positive cells that are also CD20-positive, read-out: HWB IC50
Method: Inhibition of B Cell Activation in Whole Blood Measured by CD69 Expression
A procedure to test the ability of Btk inhibitors to suppress B cell receptor-mediated activation of B cells in human blood is as follows:
Human whole blood (HWB) is obtained from healthy volunteers, with the following restrictions: 24 hr drug-free, non-smokers. Blood is collected by venipuncture into Vacutainer tubes anticoagulated with sodium heparin. Test compounds are diluted to ten times the desired starting drug concentration in PBS […], followed by three-fold serial dilutions in 10% DMSO in PBS to produce a nine point dose-response curve. […] HWB (100 μl) is added to each well, and after mixing the plates are incubated at 37 C, 5% CO2, 100% humidity for 30 minutes.
Included are induced control, unstained and single stains for compensation adjustments and initial voltage settings. […] Supernatants are removed via suction and the remaining pellets are lysed again with another 1 ml of 1× Pharmingen Lyse Buffer, and plates are spun down as before. Supernatants are aspirated and remaining pellets are washed in FACs buffer (PBS+1% FBS). […] Samples are transferred to a 96 well plate suitable to be run on the HTS 96 well system on the BD LSR II flow cytometer.
Using appropriate excitation and emission wavelengths for the fluorophores used, data are acquired and percent positive cell values are obtained using Cell Quest Software. Results are initially analyzed by FACS analysis software (Flow Jo).

SMILES	IC50
CN1CCC(c2ccc(Nc3cc(-c4ccnc(-n5ncc6cc(C(C)(C)C)cc(F)c6c5=O)c4CO)nn(C)c3=O)nc2)CC1 [Compound I-1, 6-tert-Butyl-8-fluoro-2-{3-hydroxymethyl-4-[1-methyl-5-(1′-methyl-1′,2′,3′,4′,5′,6′-hexahydro-[3,4′]bipyridinyl-6-ylamino)-6-oxo-1,6-dihydro-pyridazin-3-yl]-pyridin-2-yl}-2H-phthalazin-1-one]	11 nM
CN1CCC[C@H]1c1ccc(Nc2cc(-c3ccnc(-n4ncc5cc(C(C)(C)C)cc(F)c5c4=O)c3CO)nn(C)c2=O)nc1 [Compound I-2, 6-tert-Butyl-8-fluoro-2-(3-hydroxymethyl-4-{1-methyl-5-[5-((S)-1-methyl-pyrrolidin-2-yl)-pyridin-2-ylamino]-6-oxo-1,6-dihydro-pyridazin-3-yl}-pyridin-2-yl)-2H-phthalazin-1-one]	5 nM
CN(C)C(=O)c1ccc(Nc2cc(-c3ccnc(-n4ncc5cc(C(C)(C)C)cc(F)c5c4=O)c3CO)nn(C)c2=O)nc1 [Compound I-5, 6-{6-[2-(6-tert-Butyl-8-fluoro-1-oxo-1H-phthalazin-2-yl)-3-hydroxymethyl-pyridin-4-yl]-2-methyl-3-oxo-2,3-dihydro-pyridazin-4-ylamino}-N,N-dimethyl-nicotinamide]	30 nM
CN(C)C(=O)c1ccc(Nc2cc(-c3ccnc(-n4ccc5cc(C6CC6)cc(F)c5c4=O)c3CO)nn(C)c2=O)nc1 [Compound I-6, 6-{6-[2-(6-Cyclopropyl-8-fluoro-1-oxo-1H-isoquinolin-2-yl)-3-hydroxymethyl-pyridin-4-yl]-2-methyl-3-oxo-2,3-dihydro-pyridazin-4-ylamino}-N,N-dimethyl-nicotinamide]	77 nM
Cn1nc(-c2ccnc(-n3ncc4cc(C(C)(C)C)ccc4c3=O)c2CO)cc(Nc2ccc(C(=O)N3CCOCC3)cn2)c1=O [Compound I-7, 6-tert-Butyl-2-(3-hydroxymethyl-4-{1-methyl-5-[5-(morpholine-4-carbonyl)-pyridin-2-ylamino]-6-oxo-1,6-dihydro-pyridazin-3-yl}-pyridin-2-yl)-2H-phthalazin-1-one]	101 nM
CN(C)C(=O)c1ccc(Nc2cc(-c3ccnc(-n4ncc5cc(C(C)(C)C)cc(F)c5c4=O)c3CO)cn(C)c2=O)nc1 [Compound I-10, 6-[2′-(6-tert-Butyl-8-fluoro-1-oxo-1H-phthalazin-2-yl)-3′-hydroxymethyl-1-methyl-6-oxo-1,6-dihydro-[3,4′]bipyridinyl-5-ylamino]-N,N-dimethyl-nicotinamide]	9 nM
Cn1cc(-c2ccnc(-n3ccc4cc(C5CC5)cc(F)c4c3=O)c2CO)cc(Nc2ccc(C(=O)N3CCOCC3)cn2)c1=O [Compound I-11, 2′-(6-Cyclopropyl-8-fluoro-1-oxo-1H-isoquinolin-2-yl)-3′-hydroxymethyl-1-methyl-5-[5-(morpholine-4-carbonyl)-pyridin-2-ylamino]-1H-[3,4′]bipyridinyl-6-one]	15 nM
CN1CCC(c2ccc(Nc3cc(-c4ccnc(-n5ncc6cc(C(C)(C)C)ccc6c5=O)c4CO)nn(C)c3=O)nc2)CC1 [Compound I-13, 6-tert-Butyl-2-{3-hydroxymethyl-4-[1-methyl-5-(1′-methyl-1′,2′,3′,4′,5′,6′-hexahydro-[3,4′]bipyridinyl-6-ylamino)-6-oxo-1,6-dihydro-pyridazin-3-yl]-pyridin-2-yl}-2H-phthalazin-1-one]	47 nM
CCN1CCC(c2ccc(Nc3cc(-c4ccnc(-n5ncc6cc(C(C)(C)C)cc(F)c6c5=O)c4CO)nn(C)c3=O)nc2)CC1 [Compound I-14, 6-tert-Butyl-2-{4-[5-(1′-ethyl-1′,2′,3′,4′,5′,6′-hexahydro-[3,4′]bipyridinyl-6-ylamino)-1-methyl-6-oxo-1,6-dihydro-pyridazin-3-yl]-3-hydroxymethyl-pyridin-2-yl}-8-fluoro-2H-phthalazin-1-one]	6 nM
Cn1nc(-c2ccnc(-n3ncc4cc(C(C)(C)C)ccc4c3=O)c2CO)cc(Nc2ccc(OC(C)(C)CN3CCC3)cn2)c1=O [Compound I-16, 2-(4-{5-[5-(2-Azetidin-1-yl-1,1-dimethyl-ethoxy)-pyridin-2-ylamino]-1-methyl-6-oxo-1,6-dihydro-pyridazin-3-yl}-3-hydroxymethyl-pyridin-2-yl)-6-tert-butyl-2H-phthalazin-1-one]	28 nM
CN1CCn2nc(Nc3cc(-c4ccnc(-n5ncc6cc(C(C)(C)C)cc(F)c6c5=O)c4CO)nn(C)c3=O)cc2C1 [Compound I-18, 6-tert-Butyl-8-fluoro-2-{3-hydroxymethyl-4-[1-methyl-5-(5-methyl-4,5,6,7-tetrahydro-pyrazolo[1,5-a]pyrazin-2-ylamino)-6-oxo-1,6-dihydro-pyridazin-3-yl]-pyridin-2-yl}-2H-phthalazin-1-one]	29 nM
CN1CCn2nc(Nc3cc(-c4ccnc(-n5ncc6cc(C(C)(C)C)ccc6c5=O)c4CO)nn(C)c3=O)cc2C1 [Compound I-19, 6-tert-Butyl-2-{3-hydroxymethyl-4-[1-methyl-5-(5-methyl-4,5,6,7-tetrahydro-pyrazolo[1,5-a]pyrazin-2-ylamino)-6-oxo-1,6-dihydro-pyridazin-3-yl]-pyridin-2-yl}-2H-phthalazin-1-one]	24 nM
CN1CCn2nc(Nc3cc(-c4ccnc(-n5ccc6cc(C7CC7)cc(F)c6c5=O)c4CO)nn(C)c3=O)cc2C1 [Compound I-20, 6-Cyclopropyl-8-fluoro-2-{3-hydroxymethyl-4-[1-methyl-5-(5-methyl-4,5,6,7-tetrahydro-pyrazolo[1,5-a]pyrazin-2-ylamino)-6-oxo-1,6-dihydro-pyridazin-3-yl]-pyridin-2-yl}-2H-isoquinolin-1-one]	74 nM
CCN1CCn2nc(Nc3cc(-c4ccnc(-n5ncc6cc(C(C)(C)C)cc(F)c6c5=O)c4CO)nn(C)c3=O)cc2C1 [Compound I-22, 6-tert-Butyl-2-{4-[5-(5-ethyl-4,5,6,7-tetrahydro-pyrazolo[1,5-a]pyrazin-2-ylamino)-1-methyl-6-oxo-1,6-dihydro-pyridazin-3-yl]-3-hydroxymethyl-pyridin-2-yl}-8-fluoro-2H-phthalazin-1-one]	44 nM

The remaining molecules from weak to strong by IC50, led by results:

IC50	SMILES
95 nM	Cn1nc(-c2ccnc(-n3ncc4cc(C(C)(C)C)cc(F)c4c3=O)c2CO)cc(Nc2ccc(S(C)(=O)=O)cn2)c1=O [Compound I-4, 6-tert-Butyl-8-fluoro-2-{3-hydroxymethyl-4-[5-(5-methanesulfonyl-pyridin-2-ylamino)-1-methyl-6-oxo-1,6-dihydro-pyridazin-3-yl]-pyridin-2-yl}-2H-phthalazin-1-one]
30 nM	Cn1nc(Nc2cc(-c3ccnc(-n4ncc5cc(C(C)(C)C)cc(F)c5c4=O)c3CO)nn(C)c2=O)cc1CN1CCC1 [Compound I-17, 2-{4-[5-(5-Azetidin-1-ylmethyl-1-methyl-1H-pyrazol-3-ylamino)-1-methyl-6-oxo-1,6-dihydro-pyridazin-3-yl]-3-hydroxymethyl-pyridin-2-yl}-6-tert-butyl-8-fluoro-2H-phthalazin-1-one]
28 nM	CN1CCC[C@H]1c1ccc(Nc2cc(-c3ccnc(-n4ncc5cc(C(C)(C)C)ccc5c4=O)c3CO)nn(C)c2=O)nc1 [Compound I-12, 6-tert-Butyl-2-(3-hydroxymethyl-4-{1-methyl-5-[5-((S)-1-methyl-pyrrolidin-2-yl)-pyridin-2-ylamino]-6-oxo-1,6-dihydro-pyridazin-3-yl}-pyridin-2-yl)-2H-phthalazin-1-one]
27 nM	Cn1cc(-c2ccnc(-n3ncc4cc(C(C)(C)C)cc(F)c4c3=O)c2CO)cc(Nc2ccc(C(=O)N3CCOCC3)cn2)c1=O [Compound I-8, 2′-(6-tert-Butyl-8-fluoro-1-oxo-1H-phthalazin-2-yl)-3′-hydroxymethyl-1-methyl-5-[5-(morpholine-4-carbonyl)-pyridin-2-ylamino]-1H-[3,4′]bipyridinyl-6-one]
18 nM	Cn1nc(-c2ccnc(-n3ncc4cc(C(C)(C)C)cc(F)c4c3=O)c2CO)cc(Nc2cc3n(n2)CCN(C2COC2)C3)c1=O [Compound I-21, 6-tert-Butyl-8-fluoro-2-{3-hydroxymethyl-4-[1-methyl-5-(5-oxetan-3-yl-4,5,6,7-tetrahydro-pyrazolo[1,5-a]pyrazin-2-ylamino)-6-oxo-1,6-dihydro-pyridazin-3-yl]-pyridin-2-yl}-2H-phthalazin-1-one]
14 nM	Cn1nc(-c2ccnc(-n3ncc4cc(C(C)(C)C)cc(F)c4c3=O)c2CO)cc(Nc2ccc(C(=O)N3CCOCC3)cn2)c1=O [Compound I-3, 6-tert-Butyl-8-fluoro-2-(3-hydroxymethyl-4-{1-methyl-5-[5-(morpholine-4-carbonyl)-pyridin-2-ylamino]-6-oxo-1,6-dihydro-pyridazin-3-yl}-pyridin-2-yl)-2H-phthalazin-1-one]
3 nM	Cn1nc(-c2ccnc(-n3ncc4cc(C(C)(C)C)cc(F)c4c3=O)c2CO)cc(Nc2ccc(OC(C)(C)CN3CCC3)cn2)c1=O [Compound I-15, 2-(4-{5-[5-(2-Azetidin-1-yl-1,1-dimethyl-ethoxy)-pyridin-2-ylamino]-1-methyl-6-oxo-1,6-dihydro-pyridazin-3-yl}-3-hydroxymethyl-pyridin-2-yl)-6-tert-butyl-8-fluoro-2H-phthalazin-1-one]
